Laboratory results as given in patent publication US5344933A, “Pyrrole ring-or condensed pyrrole ring-containing azomethine dye” (Fuji Photo Film Co., Ltd., priority 1991, dated 1994).

Tests used:
Format in all cases: physicochemical
[1] = Absorption characteristics of dyes in ethyl acetate; details: for absorption maxima wavelength (λmax): Example 1
From the text: The σp value of substituents in dyes of the present invention, the absorption maxima wavelength of these dyes in ethyl acetate and their half value widths are tabulated below.
The absorption characteristics of Dyes 1, 2, 8, 12, 23, 101, 102, 104, 105, 106, 128, 129, 130, and 131 of the present invention in ethyl acetate are as shown in FIGS. 1 to 14. In these figures, the abbreviation "ABS" in the ordinate means the absorbance. The absorption maxima wavelength (λmax) in ethyl acetate and other physical properties of the dyes of the present invention are as follows: […]

[2] = Light fastness of dye images, 17,000 lux fluorescent lamp, 7 days
Protocol: (§1) The heat transfer image-receiving materials on which recording had been made were then irradiated with light from a 17,000 lux fluorescent lamp for 7 days to examine the stability of the dyes. The heat transfer image-receiving materials were also stored at a temperature of 60° C. under dry conditions for 7 days to examine the fastness of the dyes to heat. […] For the evaluation of stability, percentage of the measurements to the initial value (1.0) were determined. The measurement was effected at λmax.
(§2) Heat transfer dye providing materials (3-1), (3-2), and (3-3) were prepared in the same manner as in Example 2 except that the polyvinyl butyral resin and dye to be incorporated in the heat transfer dye providing layer coating composition of Example 2 were replaced by the resins and dyes set forth in Table 3.
(§3) Using the same image-receiving material as prepared in Example 2, printing was made on these heat transfer dye providing materials.
as §2, with “(6-1), (6-2),” for “(3-1), (3-2),”, “(6-3)” for “(3-3)”, “6.” for “3.”

[3] = Heat fastness of dye images, 60° C. dry, 7 days (Example 2); details: Table 1, initial density 1.0, at λmax
Protocol: as §1

[4] = Heat fastness of dye images, 60° C. dry, 7 days, status A reflection density (Example 5); details: Table 4, status A reflection density 1.0
Protocol: The heat transfer image-receiving materials on which recording had been made were stored at a temperature of 60° C. under dry conditions for 7 days to examine the fastness of the dyes to heat. […] For the evaluation of stability, percentage of the measurements to the initial value (1.0) were determined.
as §3

[5] = Table 1, 17,000 lux, 7 days, initial density 1.0, at λmax, polyvinyl butyral

## CCOC(=O)c1c(C)n2c(nc1=O)C(C#N)=C(c1ccccc1)C2=Nc1ccc(N(CC)CCNS(C)(=O)=O)cc1C [Dye 1]
[1]
  absorption maxima wavelength (λmax): 697 nm

## CCOC(=O)c1c(C)n2c(nc1=O)C(C#N)=C(c1ccccc1)C2=Nc1ccc(N(CC)CC)cc1 [Dye 2]
[1]
  absorption maxima wavelength (λmax): 685 nm
[2]; [5]
  Light fastness (% remaining): 90%
[2]; Table 3, resin ethyl cellulose
  Light fastness (% remaining): 91%
[3]
  Heat fastness (% remaining): 85%

## CCOC(=O)c1c(C)n2c(nc1=O)C(C#N)=C(c1ccccc1)C2=Nc1ccc(N(CC)CCOc2ccc(OC)cc2)cc1 [Dye 3]
[2]; [5]
  Light fastness (% remaining): 92%
[3]
  Heat fastness (% remaining): 86%

## CCOC(=O)c1c(C)n2c(nc1=O)C(C#N)=C(c1ccccc1)C2=Nc1ccc(N(CC)CC)cc1NC(=O)OC [Dye 4]
[2]; [5]
  Light fastness (% remaining): 91%
[2]; Table 3, resin cellulose acetobutyrate
  Light fastness (% remaining): 92%
[3]
  Heat fastness (% remaining): 85%

## CCOC(=O)c1cn2c(nc1=O)C(C#N)=C(c1ccccc1)C2=Nc1ccc(N(CC)CC)cc1 [Dye 8]
[1]
  absorption maxima wavelength (λmax): 694 nm
[2]; [5]
  Light fastness (% remaining): 91%
[2]; Table 3, resin polysulfone
  Light fastness (% remaining): 91%
[3]
  Heat fastness (% remaining): 99%

## CCOC(=O)c1cn2c(nc1=O)C(C#N)=C(c1ccccc1)C2=Nc1ccc(N(CC)CCOc2ccc(OC)cc2)cc1 [Dye 10]
[2]; [5]
  Light fastness (% remaining): 93%
[3]
  Heat fastness (% remaining): 100%

## CCOC(=O)c1cn2c(nc1=O)C(C#N)=C(c1ccccc1)C2=Nc1ccc(N(CC)CC)cc1NC(=O)OC [Dye 12]
[1]
  absorption / hue (in words): sufficient and sharp absorption in the vicinity of 700 nm and little or no absorption in the wavelength region of longer than 800 nm
  absorption maxima wavelength (λmax): 698 nm
[2]; [5]
  Light fastness (% remaining): 94%
[3]
  Heat fastness (% remaining): 98%

## CCOC(=O)c1cn2c(nc1=O)C(C#N)=C(C#N)C2=Nc1ccc(N(CC)CC)cc1NC(=O)N(C)C [Dye 16]
[2]; [5]
  Light fastness (% remaining): 93%
[3]
  Heat fastness (% remaining): 98%

## CCN(CC)c1ccc(N=C2C(C#N)=C(c3ccccc3)c3nc(=O)ccn32)c(NC(C)=O)c1 [Dye 17]
[2]; [5]
  Light fastness (% remaining): 91%
[3]
  Heat fastness (% remaining): 95%

## CCN(CC)c1ccc(N=C2C(c3ccccc3)=C(C#N)c3nc(=O)c4ccccc4n32)c(NC(C)=O)c1 [Dye 22]
[2]; [5]
  Light fastness (% remaining): 91%
[3]
  Heat fastness (% remaining): 85%

## CCCCCCCCCCCCCCCCCCOc1ccc(-c2cc(=O)n3c(n2)C(C#N)=C(c2ccccc2)C3=Nc2ccc(N(CC)CCNS(C)(=O)=O)cc2C)cc1 [Dye 23]
[1]
  absorption maxima wavelength (λmax): 658 nm

## CCOC(=O)C1=C(C#N)C(=Nc2ccc(N(CC)CC)cc2)n2c1nc1ccccc1c2=O [Dye 29]
[2]; [5]
  Light fastness (% remaining): 90%
[3]
  Heat fastness (% remaining): 86%

## CCCCCCCCCCCCC(SC1=NC(=Nc2ccc(N(CC)CCNS(C)(=O)=O)cc2C)C(C#N)=C1C(=O)OCC)C(=O)OCC (stereo not drawn) [Dye 101]
[1]
  Half value width: 65 nm
  absorption / hue (in words): long absorption maxima wavelength
  half value width (in words): sufficiently small
  absorption maxima wavelength (λmax): 660 nm

## CCCCCCCCCCCCSC1=NC(=Nc2ccc(N(CC)CCNS(C)(=O)=O)cc2C)C(C#N)=C1C(=O)OCC [Dye 102]
[1]
  Half value width: 69 nm
  absorption / hue (in words): long absorption maxima wavelength
  half value width (in words): sufficiently small
  absorption maxima wavelength (λmax): 655 nm

## CCC(Oc1ccc(C(C)(C)CC)cc1C(C)(C)CC)C(=O)NC1=C(C#N)C(c2ccccc2)=NC1=Nc1ccc(N(CC)CCNS(C)(=O)=O)cc1C (stereo not drawn) [Dye 104]
[1]
  Half value width: 78 nm
  absorption / hue (in words): in a slightly short wavelength range but exhibit a cyan hue
  half value width (in words): large half value width
  absorption maxima wavelength (λmax): 601 nm

## CCOC(=O)C1=C(c2ccccc2)C(=Nc2ccc(N(CC)CCNS(C)(=O)=O)cc2C)N=C1Cl [Dye 105]
[1]
  Half value width: 82 nm
  absorption / hue (in words): in a slightly short wavelength range but exhibit a cyan hue
  half value width (in words): large half value width
  absorption maxima wavelength (λmax): 582 nm

## CCN(CCNS(C)(=O)=O)c1ccc(N=C2N=C(N)C(C#N)=C2C#N)c(C)c1 [Dye 106]
[1]
  Half value width: 79 nm
  absorption maxima wavelength (λmax): 641 nm

## CCN(CC)c1ccc(N=C2N=C(NC(=O)C(C)(C)C)C(C#N)=C2C#N)cc1 [Dye 113]
[2]; Table 6, resin ethyl cellulose
  Light fastness (% remaining): 91%
[4]
  Heat fastness (% remaining): 90%

## CCN(CC)c1ccc(N=C2N=C(c3ccccc3)C(C#N)=C2c2ccccc2)c(C)c1 [Dye 114]
[2]; Table 6, resin cellulose acetobutyrate
  Light fastness (% remaining): 93%
[4]
  Heat fastness (% remaining): 91%

## CCN(CCOc1ccc(OC)cc1)c1ccc(N=C2N=C(c3ccccc3)C(C#N)=C2NC(=O)C(C)(C)C)cc1 [Dye 115]
[2]; Table 6, resin polysulfone
  Light fastness (% remaining): 92%
[4]
  Heat fastness (% remaining): 90%

## CCN(CC)c1ccc(N=C2N=C(c3ccccc3NC(=O)C(C)(C)C)C(C#N)=C2c2ccccc2)cc1 [Dye 116]
[4]
  Heat fastness (% remaining): 89%

## CCN(CC)c1ccc(N=C2N=C(c3ccccc3)C(C#N)=C2C(C)(C)C)c(NC(=O)N2CCOCC2)c1 [Dye 117]
[4]
  Heat fastness (% remaining): 94%

## CCN(CC)c1ccc(N=C2N=C(c3ccccc3Cl)C(C(C)(C)C)=C2C#N)c(NC(=O)C(C)(C)C)c1 [Dye 118]
[4]
  Heat fastness (% remaining): 91%

## CCN(CCC#N)c1ccc(N=C2N=C(NC(=O)C(C)(C)C)C(C#N)=C2C#N)cc1 [Dye 119]
[4]
  Heat fastness (% remaining): 90%

## CCN(CCOc1ccc(C(=O)c2ccccc2)c(O)c1)c1ccc(N=C2N=C(c3ccccc3)C(C#N)=C2c2cccs2)cc1 [Dye 120]
[4]
  Heat fastness (% remaining): 98%

## CCN(CCNS(C)(=O)=O)c1ccc(N=C2N=C(NC(C)=O)C(C#N)=C2C#N)c(C)c1 [Dye 128]
[1]
  Half value width: 64 nm
  absorption / hue (in words): long absorption maxima wavelength
  half value width (in words): sufficiently small
  absorption maxima wavelength (λmax): 658 nm

## CCN(CCNS(C)(=O)=O)c1ccc(N=C2N=C(NC(=O)Nc3ccccc3)C(C#N)=C2C#N)c(C)c1 [Dye 129]
[1]
  Half value width: 79 nm
  absorption / hue (in words): long absorption maxima wavelength
  half value width (in words): sufficiently small
  absorption maxima wavelength (λmax): 677 nm

## CCCCCCCCCCCCCCCCS(=O)(=O)Nc1ccc(Cl)c(NC(=O)NC2=NC(=Nc3ccc(N(CC)CCNS(C)(=O)=O)cc3)C(C(N)=O)=C2C(N)=O)c1 [Dye 130]
[1]
  Half value width: 120 nm
  half value width (in words): large half value width
  absorption maxima wavelength (λmax): 639 nm

## CCC(Oc1ccc(C(C)(C)CC)cc1C(C)(C)CC)C(=O)NC1=NC(=Nc2ccc(N(CC)CCNS(C)(=O)=O)cc2C)C(C(N)=O)=C1C(N)=O (stereo not drawn) [Dye 131]
[1]
  Half value width: 98 nm
  half value width (in words): large half value width
[1]; first table
  Absorption maxima: 629 nm

## CCC1=C(Cl)C(=O)C(NC(=O)c2ccco2)=CC1=Nc1ccc(N(CC)CC)cc1 [Dye a, reference compound]
[2]; [5]
  Light fastness (% remaining): 87%
[3]
  Heat fastness (% remaining): 88%

## CCN(CC)c1ccc(N=C2C=C(NC(=O)c3ccco3)C(=O)C(Cl)=C2C)cc1 [Dye b, reference compound]
[4]
  Heat fastness (% remaining): 83%
